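GI50 marks 50% less growth. The concentration for full growth arrest is given as TGI.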
Key:
Test in all cases: growth of human tumour cells (NCI), 384-well format
[1] = system: 786-0 renal
[2] = system: A498 renal
[3] = system: A549 NSCLC
[4] = system: ACHN renal
[5] = system: BT-549 breast
[6] = system: CAKI-1 renal
[7] = system: CCRF-CEM leukemia
[8] = system: COLO 205 colon
[9] = system: DU-145 prostate
[10] = system: EKVX NSCLC
[11] = system: HCC-2998 colon
[12] = system: HCT-116 colon
[13] = system: HCT-15 colon
[14] = system: HL-60(TB) leukemia
[15] = system: HOP-62 NSCLC
[16] = system: HOP-92 NSCLC
[17] = system: HT29 colon
[18] = system: IGROV1 ovarian
[19] = system: K-562 leukemia
[20] = system: KM12 colon
[21] = system: LOX IMVI melanoma
[22] = system: M14 melanoma
[23] = system: MALME-3M melanoma
[24] = system: MCF7 breast
[25] = system: MDA-MB-231 breast
[26] = system: MDA-MB-435 melanoma
[27] = system: MDA-MB-468 breast
[28] = system: MOLT-4 leukemia
[29] = system: NCI-H226 lung
[30] = system: NCI-H23 lung
[31] = system: NCI-H322M lung
[32] = system: NCI-H460 NSCLC
[33] = system: NCI-H522 lung
[34] = system: NCI/ADR-RES ovarian
[35] = system: OVCAR-3 ovarian
[36] = system: OVCAR-4 ovarian
[37] = system: OVCAR-5 ovarian
[38] = system: OVCAR-8 ovarian
[39] = system: PC-3 prostate
[40] = system: RPMI-8226 leukemia
[41] = system: RXF 393 renal
[42] = system: SF-268 CNS
[43] = system: SF-295 CNS
[44] = system: SF-539 CNS
[45] = system: SK-MEL-2 melanoma
[46] = system: SK-MEL-28 melanoma
[47] = system: SK-MEL-5 melanoma
[48] = system: SK-OV-3 ovarian
[49] = system: SN12C renal
[50] = system: SNB-19 CNS
[51] = system: SNB-75 CNS
[52] = system: SR leukemia
[53] = system: SW-620 colon
[54] = system: T-47D breast
[55] = system: TK-10 renal
[56] = system: U251 glioblastoma
[57] = system: UACC-257 melanoma
[58] = system: UACC-62 melanoma
[59] = system: UO-31 renal

SMILES: COc1ccc(Cl)c(Nc2nc3ccccc3nc2NS(=O)(=O)c2cccc(NC(=O)C(C)(C)N)c2)c1
- GI50 [1]: 9.77 µM
- TGI [1]: 22.6 µM
- GI50 [2]: 6.64 µM
- TGI [2]: 19.5 µM
- GI50 [3]: 10.5 µM
- TGI [3]: 22.4 µM
- GI50 [4]: 10.2 µM
- TGI [4]: 23.3 µM
- GI50 [5]: 3.17 µM
- TGI [5]: 14.1 µM
- GI50 [6]: 7.59 µM
- TGI [6]: 21.7 µM
- GI50 [7]: 12 µM
- TGI [7]: 24.4 µM
- GI50 [8]: 11.3 µM
- TGI [8]: 23.5 µM
- GI50 [9]: 11.4 µM
- TGI [9]: 24.4 µM
- GI50 [10]: 4.81 µM
- TGI [10]: 19.5 µM
- GI50 [11]: 8.3 µM
- TGI [11]: 22.6 µM
- GI50 [12]: 14.7 µM
- TGI [12]: 28 µM
- GI50 [13]: 12.3 µM
- TGI [13]: 25 µM
- GI50 [14]: 2.69 µM
- TGI [14]: 10.7 µM
- GI50 [15]: 13.6 µM
- TGI [15]: 26.6 µM
- GI50 [16]: 0.977 µM
- TGI [16]: 5.87 µM
- GI50 [17]: 10.2 µM
- TGI [17]: 21.9 µM
- GI50 [18]: 1.38 µM
- TGI [18]: 3.79 µM
- GI50 [19]: 13.6 µM
- TGI [19]: 26.6 µM
- GI50 [20]: 13.7 µM
- TGI [20]: 26.7 µM
- GI50 [21]: 12.8 µM
- TGI [21]: 25.4 µM
- GI50 [22]: 12.5 µM
- TGI [22]: 25.1 µM
- GI50 [23]: 9.58 µM
- TGI [23]: 21.6 µM
- GI50 [24]: 2.76 µM
- TGI [24]: 14.5 µM
- GI50 [25]: 14.3 µM
- TGI [25]: 27.5 µM
- GI50 [26]: 12.5 µM
- TGI [26]: 25.1 µM
- GI50 [27]: 1.84 µM
- TGI [27]: 10.1 µM
- GI50 [28]: 2.37 µM
- TGI [28]: 7.66 µM
- GI50 [29]: 10.9 µM
- TGI [29]: 22.9 µM
- GI50 [30]: 4.73 µM
- TGI [30]: 20.1 µM
- GI50 [31]: 10.2 µM
- TGI [31]: 23.4 µM
- GI50 [32]: 5.5 µM
- TGI [32]: 18.5 µM
- GI50 [33]: 9.12 µM
- TGI [33]: 21.6 µM
- GI50 [34]: 11 µM
- TGI [34]: 23.2 µM
- GI50 [35]: 3.11 µM
- TGI [35]: 15.5 µM
- GI50 [36]: 10.2 µM
- TGI [36]: 24.4 µM
- GI50 [37]: 9.79 µM
- TGI [37]: 22.3 µM
- GI50 [38]: 12.2 µM
- TGI [38]: 24.9 µM
- GI50 [39]: 4.02 µM
- TGI [39]: 16.3 µM
- GI50 [40]: 3.2 µM
- TGI [40]: 11.4 µM
- GI50 [41]: 2.38 µM
- TGI [41]: 8.35 µM
- GI50 [42]: 10.9 µM
- TGI [42]: 22.9 µM
- GI50 [43]: 5.29 µM
- TGI [43]: 17.9 µM
- GI50 [44]: 8.54 µM
- TGI [44]: 21.1 µM
- GI50 [45]: 11.7 µM
- TGI [45]: 24.6 µM
- GI50 [46]: 3.91 µM
- TGI [46]: 16.7 µM
- GI50 [47]: 12.8 µM
- TGI [47]: 25.5 µM
- GI50 [48]: 5.4 µM
- TGI [48]: 19.3 µM
- GI50 [49]: 8.86 µM
- TGI [49]: 21.3 µM
- GI50 [50]: 12.2 µM
- TGI [50]: 24.8 µM
- GI50 [51]: 2.43 µM
- TGI [51]: 10.1 µM
- GI50 [52]: 8.2 µM
- TGI [52]: 21.6 µM
- GI50 [53]: 10.2 µM
- TGI [53]: 22.9 µM
- GI50 [54]: 1.57 µM
- TGI [54]: 7.84 µM
- GI50 [55]: 5.77 µM
- TGI [55]: 19.5 µM
- GI50 [56]: 11.8 µM
- TGI [56]: 24.3 µM
- GI50 [57]: 11.6 µM
- TGI [57]: 24.2 µM
- GI50 [58]: 6.72 µM
- TGI [58]: 19.6 µM
- GI50 [59]: 2.73 µM
- TGI [59]: 13.3 µM

From PubChem BioAssay (NCI)
